Source: ChEMBL document CHEMBL1201862, “PubChem BioAssay data set” (2004)
Activity calls are given as the source filed them.

Columns and labels:
[1] = target: T1, Heat shock factor protein 1 (Mus musculus, UniProt P38532); experiment: enhancement of HSF1-driven luciferase signal – cell-based, NIH3T3, luminescence, dose retest, confirmation (AID 435004); format: functional;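 also: stress induced by proteasome inhibitor MG132 added 30 min after compound; luciferase reporter driven by HSF1 response element in NIH3T3 cells; actives raise luminescence as potentiators of the MG132 stress response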
T1 sequence (P38532 whole entry): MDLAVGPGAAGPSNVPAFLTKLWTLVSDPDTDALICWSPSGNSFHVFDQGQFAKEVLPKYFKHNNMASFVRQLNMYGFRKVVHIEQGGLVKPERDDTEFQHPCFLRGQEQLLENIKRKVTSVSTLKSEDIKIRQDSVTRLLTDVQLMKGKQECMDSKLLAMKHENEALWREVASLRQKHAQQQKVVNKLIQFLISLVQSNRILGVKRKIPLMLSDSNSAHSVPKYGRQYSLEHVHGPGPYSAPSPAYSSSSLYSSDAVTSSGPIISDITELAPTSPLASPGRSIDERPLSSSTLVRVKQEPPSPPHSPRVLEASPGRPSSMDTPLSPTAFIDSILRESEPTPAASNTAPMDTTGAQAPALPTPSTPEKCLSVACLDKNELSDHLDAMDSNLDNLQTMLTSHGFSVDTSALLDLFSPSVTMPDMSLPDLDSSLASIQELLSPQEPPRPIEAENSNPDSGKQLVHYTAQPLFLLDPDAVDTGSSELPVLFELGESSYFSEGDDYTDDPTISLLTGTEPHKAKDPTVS

[2] = target: 1-phosphatidylinositol 4,5-bisphosphate phosphodiesterase gamma-1 (Homo sapiens, UniProt P19174); experiment: Counterscreen for inhibitors of phospholipase C isozymes (PLC-B3): Fluorescence-based biochemical high throughput dose response assay to identify inhibitors of phospholipase C isozymes (PLC-gamma1).
[3] = target: 1-phosphatidylinositol 4,5-bisphosphate phosphodiesterase beta-3 (Homo sapiens, UniProt Q01970); experiment: Fluorescence-based biochemical high throughput dose response assay to identify inhibitors of phospholipase C isozymes (PLC-B3).
[4] = target: T2, Trace amine-associated receptor 1 (Homo sapiens, UniProt Q96RJ0); experiment: Counterscreen for agonists of the human trace amine associated receptor 1 (hTAAR1): Fluorescence-based cell-based high throughput dose response assay to identify hTAAR1 agonist that also desensitize TAAR1 receptor response.; format: functional
T2 sequence (Q96RJ0 whole entry): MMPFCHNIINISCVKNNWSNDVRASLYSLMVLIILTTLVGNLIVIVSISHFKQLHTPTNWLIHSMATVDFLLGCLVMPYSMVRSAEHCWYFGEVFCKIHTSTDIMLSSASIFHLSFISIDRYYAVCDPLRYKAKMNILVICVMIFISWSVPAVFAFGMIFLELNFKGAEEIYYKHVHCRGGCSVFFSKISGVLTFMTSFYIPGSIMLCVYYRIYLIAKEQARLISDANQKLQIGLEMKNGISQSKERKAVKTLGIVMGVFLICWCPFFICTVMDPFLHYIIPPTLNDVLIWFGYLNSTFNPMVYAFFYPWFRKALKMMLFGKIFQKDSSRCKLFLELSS

[5] = target: T2, Trace amine-associated receptor 1; experiment: Fluorescence-based cell-based high throughput dose response assay to identify agonists of the human trace amine associated receptor 1 (TAAR1).; format: functional
[6] = cells; format: functional, cell-based
[7] = cells; format: functional, cell-based; remark: listed apart in the source
[8] = general mammalian cell viability loss – inhibitor set, cherry-pick, set 2, cytotoxicity control for miR-122 modulator project, dose response (AID 720697); format: functional, cell-based
[9] = target: Beta-galactosidase (Escherichia coli, UniProt Q8VNN2); experiment: Dose response counterscreen for EBI2 assay utilizing the enzyme, b-galactosidase.; format: functional
[10] = target: Dual specificity protein phosphatase 3 (Homo sapiens, UniProt P51452); experiment: VHR phosphatase inhibition, dose response, selectivity assay for STEP inhibitor project, biochemical (AID 602374); format: functional; settings: read-out: IC50_Mean
[11] = target: T3, Tyrosine-protein phosphatase non-receptor type 22 (Homo sapiens, UniProt Q9Y2R2); experiment: lymphoid phosphatase LYP inhibitors – biochemical, selectivity assay for STEP inhibitor project, dose response (AID 624241); format: functional
T3 sequence (Q9Y2R2 whole entry): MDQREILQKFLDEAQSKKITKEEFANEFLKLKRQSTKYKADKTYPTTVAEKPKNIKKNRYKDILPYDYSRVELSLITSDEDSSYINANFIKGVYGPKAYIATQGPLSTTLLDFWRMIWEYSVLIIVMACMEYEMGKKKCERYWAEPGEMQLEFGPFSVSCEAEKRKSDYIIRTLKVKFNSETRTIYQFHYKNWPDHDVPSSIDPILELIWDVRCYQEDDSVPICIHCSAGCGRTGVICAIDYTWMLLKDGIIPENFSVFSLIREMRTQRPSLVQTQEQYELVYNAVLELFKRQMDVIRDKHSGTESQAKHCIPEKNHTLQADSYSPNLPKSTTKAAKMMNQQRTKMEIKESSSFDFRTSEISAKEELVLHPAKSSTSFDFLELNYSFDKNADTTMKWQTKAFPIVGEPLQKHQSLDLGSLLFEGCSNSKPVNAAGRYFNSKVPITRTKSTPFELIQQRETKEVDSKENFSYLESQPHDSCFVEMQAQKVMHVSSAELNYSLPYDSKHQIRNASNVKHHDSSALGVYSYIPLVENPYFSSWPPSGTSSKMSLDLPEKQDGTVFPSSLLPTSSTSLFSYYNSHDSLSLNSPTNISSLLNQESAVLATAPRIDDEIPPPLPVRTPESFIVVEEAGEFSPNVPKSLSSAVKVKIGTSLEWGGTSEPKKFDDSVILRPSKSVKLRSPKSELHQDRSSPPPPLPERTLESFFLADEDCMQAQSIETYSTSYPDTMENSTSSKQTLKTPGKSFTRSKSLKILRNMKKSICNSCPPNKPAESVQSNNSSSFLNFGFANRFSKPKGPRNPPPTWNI

[12] = target: Tyrosine-protein phosphatase non-receptor type 5 (Homo sapiens, UniProt P54829); experiment: PTPN5 enzyme inhibition – biochemical, fluorescence intensity, uHTS hits, confirmation (AID 602372); format: functional; settings: read-out: IC50_Mean
[13] = target: Tyrosine-protein phosphatase non-receptor type 11 (Homo sapiens, UniProt Q06124); experiment: PTPN11 enzyme inhibitors – biochemical, selectivity assay for STEP inhibitor project, dose response (AID 602367); format: functional; settings: read-out: IC50_Mean
[14] = A549 cell cytotoxicity, dose response, cytotoxicity control, plate reader, cherry-pick, antagonist series (AID 743412); format: functional, cell-based
[15] = toxicity toward HepG2 liver cells – cell-based, plate reader, cherry-pick, antagonist series, cytotoxicity control, dose response (AID 743416); format: functional
[16] = viability of uninfected HEp-2 cells – cell-based, HTS, cytotoxicity control for RSV inhibitor project, dose response (AID 2410); format: functional; settings: human respiratory syncytial virus
[17] = viability loss in HEK293 cells – cell-based, plate reader, cherry-picked samples, cytotoxicity control, dose response (AID 743446); format: functional
[18] = cells
[19] = blockade of melanocortin 4 receptor signaling – cell-based, plate reader, cherry pick, counter-screen for LGR2 antagonist project, dose response (AID 743444); format: functional;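 also: transfected HEK 293 cells stimulated with alpha-MSH peptide; potency of inhibitors of the alpha-MSH evoked signal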
[20] = blockers of bursicon-stimulated LGR2 cAMP reporter – cell-based, HEK293, CRE-luciferase reporter, cherry pick, set 2, dose response (AID 743343); format: functional;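 also: transfected cells were stimulated with diluted bursicon conditioned medium after compound addition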
[21] = target: T4, Sentrin-specific protease 1 (Homo sapiens, UniProt Q9P0U3); experiment: SENP1 catalytic domain blockers, concentration series – biochemical, kinetic FRET, dose response (AID 651697); format: functional; settings: read-out: IC50_Mean
T4 sequence (Q9P0U3 whole entry): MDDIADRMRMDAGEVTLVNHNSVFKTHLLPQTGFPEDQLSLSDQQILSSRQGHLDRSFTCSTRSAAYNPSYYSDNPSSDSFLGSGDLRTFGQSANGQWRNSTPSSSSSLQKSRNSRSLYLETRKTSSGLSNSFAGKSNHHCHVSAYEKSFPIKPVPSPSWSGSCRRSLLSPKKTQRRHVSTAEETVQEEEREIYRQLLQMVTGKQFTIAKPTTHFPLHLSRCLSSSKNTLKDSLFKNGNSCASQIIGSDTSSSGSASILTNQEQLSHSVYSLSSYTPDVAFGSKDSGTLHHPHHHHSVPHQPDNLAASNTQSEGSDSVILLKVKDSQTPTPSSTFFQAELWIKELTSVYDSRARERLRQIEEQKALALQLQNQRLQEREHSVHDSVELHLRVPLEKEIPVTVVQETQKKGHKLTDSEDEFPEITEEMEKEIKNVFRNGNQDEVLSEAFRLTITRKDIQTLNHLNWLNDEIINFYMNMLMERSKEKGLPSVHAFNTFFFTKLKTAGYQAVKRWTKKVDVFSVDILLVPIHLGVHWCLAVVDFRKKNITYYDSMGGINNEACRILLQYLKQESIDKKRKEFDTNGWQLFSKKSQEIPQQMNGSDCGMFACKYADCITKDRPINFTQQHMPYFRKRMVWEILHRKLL

[22] = target: T4, Sentrin-specific protease 1; experiment: Dose response confirmation of small molecule inhibitors of the catalytic domain of the SUMO protease, SENP1 in a FRET assay.; format: functional; settings: read-out: IC50_Mean
[23] = cells; format: functional, cell-based; remark: listed apart in the source
[24] = target: T5, Nuclear receptor subfamily 0 group B member 1 (Homo sapiens, UniProt P51843); format: functional, cell-based;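 also: HEK293T cells transfected with SF-1 and DAX-1 plus StAR promoter luciferase reporter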
T5 sequence (P51843 whole entry): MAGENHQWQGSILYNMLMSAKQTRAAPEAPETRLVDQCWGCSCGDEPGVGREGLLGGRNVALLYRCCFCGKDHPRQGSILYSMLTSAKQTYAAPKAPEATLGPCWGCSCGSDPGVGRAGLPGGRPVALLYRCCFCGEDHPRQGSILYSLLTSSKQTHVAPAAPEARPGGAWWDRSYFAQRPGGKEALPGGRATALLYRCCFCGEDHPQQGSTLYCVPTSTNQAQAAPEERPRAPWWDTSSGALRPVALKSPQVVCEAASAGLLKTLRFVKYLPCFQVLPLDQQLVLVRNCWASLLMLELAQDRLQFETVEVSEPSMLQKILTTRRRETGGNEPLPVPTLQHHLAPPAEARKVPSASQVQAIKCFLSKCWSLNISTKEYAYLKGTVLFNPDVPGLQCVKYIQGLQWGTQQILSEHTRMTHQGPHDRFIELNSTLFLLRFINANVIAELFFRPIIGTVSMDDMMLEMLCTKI

[25] = target: Ras and Rab interactor 1/Tyrosine-protein kinase ABL1 (Homo sapiens, UniProt P00519+Q13671); format: functional;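 also: biochemical TR-FRET dose-response test measuring inhibition of binding between Rin1 and Abl proteins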
[26] = test system: HeLa; experiment: viability loss in HeLa cells – cell-based, ATP luminescence, cherry-pick samples, cytotoxicity control, dose response (AID 687004); format: functional; settings: Homo sapiens
[27] = anti-trypanosomal activity in BESM host cells – imaging, CA-I/72 strain, bovine embryo skeletal muscle, dry powder, dose response (AID 651885); format: functional, cell-based

Sequence of Beta-galactosidase (Q8VNN2 whole entry): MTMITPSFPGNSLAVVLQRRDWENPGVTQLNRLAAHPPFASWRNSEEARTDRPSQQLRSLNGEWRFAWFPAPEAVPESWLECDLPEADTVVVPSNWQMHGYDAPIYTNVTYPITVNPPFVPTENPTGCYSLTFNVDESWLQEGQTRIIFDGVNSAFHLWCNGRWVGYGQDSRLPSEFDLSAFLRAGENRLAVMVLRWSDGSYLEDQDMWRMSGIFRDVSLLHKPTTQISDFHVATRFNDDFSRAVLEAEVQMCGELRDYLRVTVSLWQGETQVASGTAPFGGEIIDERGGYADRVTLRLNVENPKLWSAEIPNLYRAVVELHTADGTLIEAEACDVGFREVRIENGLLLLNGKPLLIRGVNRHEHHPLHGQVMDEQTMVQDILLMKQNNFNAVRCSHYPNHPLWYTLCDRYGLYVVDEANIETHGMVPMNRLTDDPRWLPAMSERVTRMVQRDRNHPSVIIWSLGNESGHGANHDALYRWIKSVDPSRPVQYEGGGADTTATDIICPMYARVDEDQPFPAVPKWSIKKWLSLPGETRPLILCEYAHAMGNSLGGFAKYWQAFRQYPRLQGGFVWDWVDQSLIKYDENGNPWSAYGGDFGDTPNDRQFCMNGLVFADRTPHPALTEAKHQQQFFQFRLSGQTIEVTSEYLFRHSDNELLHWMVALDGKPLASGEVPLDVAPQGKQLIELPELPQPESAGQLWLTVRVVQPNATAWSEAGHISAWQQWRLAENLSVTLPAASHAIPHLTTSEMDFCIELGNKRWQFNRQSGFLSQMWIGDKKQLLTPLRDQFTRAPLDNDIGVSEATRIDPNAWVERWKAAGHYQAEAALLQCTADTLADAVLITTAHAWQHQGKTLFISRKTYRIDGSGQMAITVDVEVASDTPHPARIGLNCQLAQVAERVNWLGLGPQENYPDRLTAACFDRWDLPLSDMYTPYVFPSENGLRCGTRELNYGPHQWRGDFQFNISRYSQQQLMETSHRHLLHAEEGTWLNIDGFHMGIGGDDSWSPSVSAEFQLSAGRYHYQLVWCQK
Sequence of Tyrosine-protein phosphatase non-receptor type 11 (Q06124 whole entry): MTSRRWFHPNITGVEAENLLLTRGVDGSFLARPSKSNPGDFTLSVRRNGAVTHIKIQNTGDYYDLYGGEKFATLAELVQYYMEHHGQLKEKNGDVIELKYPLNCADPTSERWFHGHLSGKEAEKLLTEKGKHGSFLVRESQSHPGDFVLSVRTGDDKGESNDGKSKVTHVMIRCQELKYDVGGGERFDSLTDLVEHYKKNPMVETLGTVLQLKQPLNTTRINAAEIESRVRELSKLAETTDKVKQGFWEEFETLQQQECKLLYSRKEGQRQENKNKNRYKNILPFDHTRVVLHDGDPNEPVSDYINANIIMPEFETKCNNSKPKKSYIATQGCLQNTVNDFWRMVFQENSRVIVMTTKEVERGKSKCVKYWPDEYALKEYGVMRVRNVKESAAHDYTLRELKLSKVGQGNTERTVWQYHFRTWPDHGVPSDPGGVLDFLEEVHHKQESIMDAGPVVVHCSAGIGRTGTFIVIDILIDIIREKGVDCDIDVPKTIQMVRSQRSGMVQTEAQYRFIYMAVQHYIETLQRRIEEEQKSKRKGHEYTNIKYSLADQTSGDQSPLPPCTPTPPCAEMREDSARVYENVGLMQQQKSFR
Sequence of Dual specificity protein phosphatase 3 (P51452 whole entry): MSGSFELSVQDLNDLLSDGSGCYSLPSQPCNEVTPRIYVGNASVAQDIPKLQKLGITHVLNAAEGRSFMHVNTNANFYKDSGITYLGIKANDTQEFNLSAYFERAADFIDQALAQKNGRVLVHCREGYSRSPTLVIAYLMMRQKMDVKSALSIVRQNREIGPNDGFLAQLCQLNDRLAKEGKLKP
Sequence of Tyrosine-protein phosphatase non-receptor type 5 (P54829 whole entry): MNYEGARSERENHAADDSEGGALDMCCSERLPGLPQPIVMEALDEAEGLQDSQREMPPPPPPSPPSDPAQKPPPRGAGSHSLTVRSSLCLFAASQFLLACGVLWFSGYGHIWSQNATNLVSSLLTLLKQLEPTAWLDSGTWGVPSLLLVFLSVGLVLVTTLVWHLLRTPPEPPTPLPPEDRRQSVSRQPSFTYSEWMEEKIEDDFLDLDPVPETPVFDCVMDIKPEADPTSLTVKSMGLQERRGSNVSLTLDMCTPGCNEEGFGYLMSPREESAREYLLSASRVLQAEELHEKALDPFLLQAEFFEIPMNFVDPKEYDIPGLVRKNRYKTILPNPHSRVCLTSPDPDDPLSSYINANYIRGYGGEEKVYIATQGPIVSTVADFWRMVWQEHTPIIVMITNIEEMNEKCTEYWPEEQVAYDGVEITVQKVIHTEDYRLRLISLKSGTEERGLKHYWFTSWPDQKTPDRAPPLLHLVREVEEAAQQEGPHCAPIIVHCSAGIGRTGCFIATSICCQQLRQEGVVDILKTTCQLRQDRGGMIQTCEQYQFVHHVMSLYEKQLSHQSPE
Sequence of 1-phosphatidylinositol 4,5-bisphosphate phosphodiesterase beta-3 (Q01970 whole entry): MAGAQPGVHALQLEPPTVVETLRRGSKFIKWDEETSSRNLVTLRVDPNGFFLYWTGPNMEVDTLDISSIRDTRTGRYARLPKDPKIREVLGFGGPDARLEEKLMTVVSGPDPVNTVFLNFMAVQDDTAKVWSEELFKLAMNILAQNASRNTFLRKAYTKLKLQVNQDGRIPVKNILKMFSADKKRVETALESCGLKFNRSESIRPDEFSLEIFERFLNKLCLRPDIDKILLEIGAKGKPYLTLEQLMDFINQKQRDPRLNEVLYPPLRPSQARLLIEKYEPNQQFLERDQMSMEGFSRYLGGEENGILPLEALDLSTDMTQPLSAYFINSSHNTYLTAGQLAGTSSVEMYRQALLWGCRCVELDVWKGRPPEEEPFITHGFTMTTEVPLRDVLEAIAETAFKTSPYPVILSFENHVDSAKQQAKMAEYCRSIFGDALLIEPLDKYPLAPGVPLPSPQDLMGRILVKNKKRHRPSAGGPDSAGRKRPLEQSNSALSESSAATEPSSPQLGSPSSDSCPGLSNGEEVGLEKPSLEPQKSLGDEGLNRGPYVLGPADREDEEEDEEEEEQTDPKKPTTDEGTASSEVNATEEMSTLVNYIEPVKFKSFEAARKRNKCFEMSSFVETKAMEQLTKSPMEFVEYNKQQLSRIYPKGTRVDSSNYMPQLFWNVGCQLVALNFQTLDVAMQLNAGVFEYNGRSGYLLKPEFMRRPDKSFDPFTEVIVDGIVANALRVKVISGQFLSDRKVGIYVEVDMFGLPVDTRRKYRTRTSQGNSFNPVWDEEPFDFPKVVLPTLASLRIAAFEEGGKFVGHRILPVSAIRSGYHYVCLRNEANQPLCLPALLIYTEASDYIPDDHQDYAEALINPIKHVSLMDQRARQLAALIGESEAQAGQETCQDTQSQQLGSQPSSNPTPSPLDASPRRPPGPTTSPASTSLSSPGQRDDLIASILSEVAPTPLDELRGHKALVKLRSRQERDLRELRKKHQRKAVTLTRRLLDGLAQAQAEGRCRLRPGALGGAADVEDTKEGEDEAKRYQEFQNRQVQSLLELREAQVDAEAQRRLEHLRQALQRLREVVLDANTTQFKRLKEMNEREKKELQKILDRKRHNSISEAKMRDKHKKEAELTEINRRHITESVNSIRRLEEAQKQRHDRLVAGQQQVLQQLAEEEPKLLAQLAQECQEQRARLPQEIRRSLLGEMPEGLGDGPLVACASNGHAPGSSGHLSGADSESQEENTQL
Sequence of 1-phosphatidylinositol 4,5-bisphosphate phosphodiesterase gamma-1 (P19174 whole entry): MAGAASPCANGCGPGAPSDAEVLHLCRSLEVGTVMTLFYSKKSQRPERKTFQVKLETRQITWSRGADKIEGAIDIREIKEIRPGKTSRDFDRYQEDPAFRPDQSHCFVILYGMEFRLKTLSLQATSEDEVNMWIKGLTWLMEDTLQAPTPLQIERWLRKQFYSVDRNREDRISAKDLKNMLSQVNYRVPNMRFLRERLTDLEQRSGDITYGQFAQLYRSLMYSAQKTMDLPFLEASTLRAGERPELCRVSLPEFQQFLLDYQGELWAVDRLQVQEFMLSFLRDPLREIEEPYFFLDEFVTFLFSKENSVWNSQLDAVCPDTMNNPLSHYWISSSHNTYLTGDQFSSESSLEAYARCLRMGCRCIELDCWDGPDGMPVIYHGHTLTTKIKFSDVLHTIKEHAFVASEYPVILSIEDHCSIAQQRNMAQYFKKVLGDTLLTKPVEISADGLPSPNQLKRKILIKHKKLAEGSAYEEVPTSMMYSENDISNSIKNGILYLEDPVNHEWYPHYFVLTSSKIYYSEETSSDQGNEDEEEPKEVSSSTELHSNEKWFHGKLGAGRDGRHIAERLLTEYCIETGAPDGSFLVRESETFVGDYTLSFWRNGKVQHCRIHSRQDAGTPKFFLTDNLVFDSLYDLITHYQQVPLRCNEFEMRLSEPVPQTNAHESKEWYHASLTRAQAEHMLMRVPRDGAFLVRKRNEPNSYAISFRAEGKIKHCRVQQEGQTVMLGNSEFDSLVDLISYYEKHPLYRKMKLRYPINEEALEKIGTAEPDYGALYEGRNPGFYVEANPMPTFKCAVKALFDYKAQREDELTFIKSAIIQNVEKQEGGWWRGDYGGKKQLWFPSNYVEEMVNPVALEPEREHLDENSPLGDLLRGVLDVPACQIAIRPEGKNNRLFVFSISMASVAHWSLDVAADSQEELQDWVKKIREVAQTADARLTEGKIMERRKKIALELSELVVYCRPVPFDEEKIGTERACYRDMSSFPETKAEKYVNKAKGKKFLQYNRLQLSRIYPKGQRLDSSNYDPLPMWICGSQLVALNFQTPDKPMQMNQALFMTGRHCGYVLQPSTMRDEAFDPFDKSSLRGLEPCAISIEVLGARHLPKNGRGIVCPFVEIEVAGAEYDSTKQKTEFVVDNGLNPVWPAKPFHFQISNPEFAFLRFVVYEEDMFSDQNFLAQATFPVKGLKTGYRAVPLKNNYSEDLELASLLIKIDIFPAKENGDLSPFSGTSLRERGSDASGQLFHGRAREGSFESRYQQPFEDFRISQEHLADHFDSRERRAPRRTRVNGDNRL

Structure (SMILES): CC/C(NCc1ccco1)=C1/C(=O)NC(=O)N(C2CCCCC2)C1=O
- EC50 [1]: > 260 µM (inactive)
- IC50 [2]: > 122 µM (inactive)
- IC50 [3]: > 122 µM (inactive)

Structure (SMILES): CCc1ccccc1S(=O)(=O)Cc1ccc(C(=O)NCCc2ccccc2)o1
- IC50 [4]: 6.38 µM (active)
- EC50 [5]: 4.46 µM (active)
- EC50 [6]: > 29.9 µM (inactive)
- IC50 [7]: 20 µM (inactive)

Structure (SMILES): COc1ccc(-c2c(C(C)=O)c(C)nc3sc4c(c23)NC(c2ccccc2)NC4=O)cc1 (stereo unspecified)
- AC50 [8]: 2.66 µM (active)

Structure (SMILES): CCCCCn1c(=O)[nH]c2cc(C(=O)NCCN3C(C)CCCC3C)ccc2c1=O (stereo unspecified)
- AC50 [8]: 2.22 µM (active)

Structure (SMILES): O=C(COc1ccc(Cl)cc1)N1CCN(Cc2ccccc2)CC1
- IC50 [9]: > 80 µM (inactive)

Structure (SMILES): COc1cc(/C=C2/SC(=S)N(CC(=O)O)C2=O)ccc1OCC(=O)Nc1ccc(C)c(C)c1
- IC50 [10]: 4.32 µM (active)
- IC50 [11]: 16.5 µM (active)
- IC50 [12]: 6.72 µM (active)
- IC50 [13]: 3.64 µM (active)

Structure (SMILES): COc1ccc(CCNC(=O)C2CCN(S(=O)(=O)c3ccc(Cl)cc3)CC2)cc1OC
- AC50 [14]: 35.3 µM (active)
- AC50 [15]: 35.2 µM (active)

Structure (SMILES): COc1ccccc1N(Cc1ccccc1)S(=O)(=O)c1cccc(C(=O)Nc2cc(C)ccn2)c1
- CC50 [16]: 21.8 µM (active)
- AC50 [17]: 4.09 µM (active)
- IC50 [18]: 38.5 µM (active)
- AC50 [19]: 3.95 µM (active)
- AC50 [14]: 32.2 µM (active)
- AC50 [20]: 4.92 µM (active)

Structure (SMILES): O=C(O)CN1C(=O)S/C(=C2/C(=O)Nc3ccccc32)C1=O
- IC50 [21]: 13.7 µM (active)
- IC50 [22]: 3.7 µM (active)

Structure (SMILES): O=C(NN=Cc1ccccc1O)c1cccc([N+](=O)[O-])c1
- IC50 [10]: 3.13 µM (active)
- IC50 [11]: > 100 µM (inactive)
- IC50 [12]: 8.95 µM (active)
- IC50 [13]: 2.39 µM (active)

Structure (SMILES): COc1ccc(-c2cc(NC=O)c3ncc(-c4ccc(OC)c(OC)c4)n3c2)c(OC)c1
- IC50 [23]: > 67.6 µM (inactive)
- IC50 [24]: > 67.6 µM (inactive)

Structure (SMILES): OC[C@@H]1CN(Cc2ccc(Cl)cc2)C[C@H](n2cnc3c(NC4CC4)ncnc32)O1
- IC50 [25]: 37.2 µM (inactive)
- IC50 [9]: > 80 µM (inactive)

Structure (SMILES): COc1cccc(-c2nc(SC)nc3sc(C(=O)NC(C)(C)C)c(N)c23)c1
- IC50 [21]: 19.1 µM (active)
- IC50 [22]: 15.2 µM (active)

Structure (SMILES): Cc1ccccc1C(=O)N[C@H](C(=O)N1CCC[C@H]1C(=O)NCCc1ccccc1Cl)C(C)C
- IC50 [4]: 3.15 µM (active)
- EC50 [5]: 1.64 µM (active)
- EC50 [6]: > 29.9 µM (inactive)
- IC50 [7]: > 3.32 µM (active)

Structure (SMILES): O=C(C1CCOCC1)N1C[C@H]2[C@@H](c3ccccc31)[C@@H](CO)N2Cc1ccccc1Cl
- AC50 [26]: > 52 µM (inactive)

Structure (SMILES): Cc1ccc(N2CCN(C(CCc3ccccc3)C(=O)Nc3c(C)cccc3C)CC2)cc1 (stereo unspecified)
- AC50 [26]: > 52 µM (inactive)

Structure (SMILES): C[C@@H]1CN([C@@H](C)CO)C(=O)c2cc(Br)cnc2O[C@H]1CN(C)Cc1ccc2c(c1)OCO2
- IC50 [27]: > 20 µM (inactive)
